Like-named read-outs stand apart in the source and are kept apart here.
How the values were obtained:
MATE1 = molecular target: T1, MATE1 (Homo sapiens, UniProt Q96FL8); assay: Uptake ratio in MATE1-overexpressing HEK293 cells vs empty vector (2.5 μM, 1 min, HPLC-MS/MS); assay type: cell-based
T1 sequence (Q96FL8 1-570): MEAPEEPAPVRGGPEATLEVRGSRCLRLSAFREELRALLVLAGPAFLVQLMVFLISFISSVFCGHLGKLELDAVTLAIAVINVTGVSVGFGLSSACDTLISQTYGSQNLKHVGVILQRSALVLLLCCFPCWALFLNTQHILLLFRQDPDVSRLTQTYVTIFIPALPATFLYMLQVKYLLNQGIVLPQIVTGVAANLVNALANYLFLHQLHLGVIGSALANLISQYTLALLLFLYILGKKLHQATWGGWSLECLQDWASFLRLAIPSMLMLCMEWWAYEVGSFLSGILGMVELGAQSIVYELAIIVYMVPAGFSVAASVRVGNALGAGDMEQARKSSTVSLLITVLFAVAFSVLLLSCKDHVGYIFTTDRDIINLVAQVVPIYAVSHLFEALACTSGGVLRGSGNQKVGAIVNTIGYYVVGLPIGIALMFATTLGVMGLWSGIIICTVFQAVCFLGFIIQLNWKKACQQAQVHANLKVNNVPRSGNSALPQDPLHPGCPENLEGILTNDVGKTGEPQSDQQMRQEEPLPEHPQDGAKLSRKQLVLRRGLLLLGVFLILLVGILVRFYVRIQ

MATE2K = MATE2K (Homo sapiens, UniProt Q86VL8); assay: Uptake ratio in MATE2K-overexpressing HEK293 cells vs empty vector (2.5 μM, 1 min, HPLC-MS/MS); assay type: cell-based
[1] = fold uptake over empty vector, 2.5 μM, 1 min
[2] = uptake ratio MATE1-overexpressing vs empty-vector HEK293 cells, 2.5 μM, 1 min, mean
[3] = uptake ratio MATE2K-overexpressing vs empty-vector HEK293 cells, 2.5 μM, 1 min, mean
[4] = mean ratio of uptake in MATE1-overexpressing HEK293 cells vs empty vector, 2.5 μM, 1 min
[5] = mean ratio of uptake in MATE2K-overexpressing HEK293 cells vs empty vector, 2.5 μM, 1 min

Sequence of MATE2K (Q86VL8 1-566 isoform Q86VL8-3): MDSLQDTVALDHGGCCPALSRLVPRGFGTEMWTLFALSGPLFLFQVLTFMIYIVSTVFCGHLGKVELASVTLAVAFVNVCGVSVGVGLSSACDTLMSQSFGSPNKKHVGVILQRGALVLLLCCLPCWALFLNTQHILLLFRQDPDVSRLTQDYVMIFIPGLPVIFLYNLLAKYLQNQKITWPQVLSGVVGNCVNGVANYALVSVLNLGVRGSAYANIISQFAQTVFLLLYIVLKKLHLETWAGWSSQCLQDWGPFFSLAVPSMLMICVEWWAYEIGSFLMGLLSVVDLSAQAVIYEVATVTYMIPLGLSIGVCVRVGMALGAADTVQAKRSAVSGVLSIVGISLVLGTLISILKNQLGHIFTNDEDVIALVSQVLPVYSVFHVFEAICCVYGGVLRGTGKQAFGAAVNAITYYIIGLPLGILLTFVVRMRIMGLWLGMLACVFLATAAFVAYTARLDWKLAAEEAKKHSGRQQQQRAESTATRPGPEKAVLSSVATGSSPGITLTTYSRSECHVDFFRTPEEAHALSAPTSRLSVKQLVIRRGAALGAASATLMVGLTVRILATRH

Row | Structure (SMILES) | MATE1 ratio (MATE1; [1]) | MATE2K ratio (MATE2K; [1]) | further results
1 | COc1cc2ncnc(Nc3ccc(F)c(Cl)c3)c2cc1OCCCN1CCOCC1 [Gefitinib] | 0.89 | 0.88 | 
2 | N[C@@H](Cc1ccc(O)c(O)c1)C(=O)O [Levodopa] | 0.71 | 1.01 | 
3 | O=S(=O)(c1cccc2cnccc12)N1CCCNCC1 [Fasudil] | 1.50 | 1.80 | 
4 | CCNC(C)Cc1ccc2c(c1)OCO2 (centres unmarked) [Methylenedioxyethamphetamine] |  |  | MATE1 ratio (MATE1): 1.07; MATE2K ratio (MATE2K): 1.39
5 | COC(=O)CCc1ccc(OCC(O)CNC(C)C)cc1 (centres unmarked) [Esmolol] | 1.42 | 1.23 | 
6 | CC(NC(C)(C)CO)C(=O)c1cccc(Cl)c1 (centres unmarked) [Hydroxybupropion] |  |  | MATE1 ratio (MATE1): 1.09; MATE2K ratio (MATE2K): 1.51
7 | CC(=O)Nc1ccc(OCC(O)CNC(C)C)cc1 (centres unmarked) [Practolol] | 21.52 | 8.46 | 
8 | Nc1cccc2c1C(=O)N(C1CCC(=O)NC1=O)C2=O (centres unmarked) [Pomalidomide] | 1.08 | 0.89 | 
9 | COC(=O)[C@H]1[C@H]2C[C@@H]3c4[nH]c5cc(OC)ccc5c4CCN3C[C@H]2C[C@@H](OC(=O)c2cc(OC)c(OC)c(OC)c2)[C@@H]1OC [Reserpine] | 1.61 | 1.08 | MATE1 (MATE1; [2]): 1.61; MATE2 (MATE2K; [3]): 1.08
10 | CN(C)c1ccc(C(=C2C=CC(=[N+](C)C)C=C2)c2ccc(N(C)C)cc2)cc1 [Gentian violet] | 1.40 | 1.05 | 
11 | CCCS(=O)(=O)N[C@H]1C[C@@H](N(C)c2ncnc3[nH]ccc23)C1 [Abrocitinib] | 1.09 | 1.19 | MATE1 (uptake ratio) (MATE1; [4]): 1.09; MATE2 (uptake ratio) (MATE2K; [5]): 1.19
12 | OCCN(CCO)c1nc(N2CCCCC2)c2nc(N(CCO)CCO)nc(N3CCCCC3)c2n1 [Dipyridamole] | 1.11 | 1.13 | 
13 | Cc1cc(C(C)(C)C)c(O)c(C)c1CC1=NCCN1 [Oxymetazoline] | 5.22 | 2.29 | 
14 | CN(C)c1ccc2nc3ccc(=[N+](C)C)cc-3sc2c1 [Methylene blue] |  |  | MATE1 ratio (MATE1): 2.36; MATE2K ratio (MATE2K): 1.55
15 | CN(C)C(=O)Oc1cc(OC(=O)N(C)C)cc(C(O)CNC(C)(C)C)c1 (centres unmarked) [Bambuterol] | 1.52 | 1.21 | MATE1 (uptake ratio) (MATE1; [4]): 1.52; MATE2 (uptake ratio) (MATE2K; [5]): 1.21
16 | CN(C)CCCN1c2ccccc2Sc2ccc(Cl)cc21 [Chlorpromazine] | 1.42 | 1.33 | MATE1 (uptake ratio) (MATE1; [4]): 1.42; MATE2 (uptake ratio) (MATE2K; [5]): 1.33
17 | COc1ccccc1N1CCN(CCCNc2cc(=O)n(C)c(=O)n2C)CC1 [Urapidil] |  |  | MATE1 (MATE1; [2]): 1.19; MATE2 (MATE2K; [3]): 1.17
18 | Clc1ccc2c(c1)C(N1CCNCC1)=Nc1ccccc1O2 [Amoxapine] | 1.32 | 1.33 | MATE1 (uptake ratio) (MATE1; [4]): 1.32; MATE2 (uptake ratio) (MATE2K; [5]): 1.33
19 | CN1CCc2cccc3c2[C@H]1Cc1ccc(O)c(O)c1-3 [Apomorphine] | 1.05 | 1.02 | MATE1 (uptake ratio) (MATE1; [4]): 1.05; MATE2 (uptake ratio) (MATE2K; [5]): 1.02
20 | Cc1cnc(Nc2ccc(OCCN3CCCC3)cc2)nc1Nc1cccc(S(=O)(=O)NC(C)(C)C)c1 [Fedratinib] | 1.16 | 0.87 | 
21 | C[N+]1(C)CCN(c2ccccc2)CC1 [Dimethylphenylpiperazinium] |  |  | MATE1 ratio (MATE1): 29.06; MATE2K ratio (MATE2K): 4.30
22 | O=C(NCCNCC(O)COc1ccc(O)cc1)N1CCOCC1 (centres unmarked) [Xamoterol] |  |  | MATE1 (MATE1; [2]): 7.62; MATE2 (MATE2K; [3]): 6.13

Row | Structure (SMILES) | MATE1 ratio (MATE1; [1]) | MATE2K ratio (MATE2K; [1]) | further results
23 | Nc1nc(=O)c2nc(CNc3ccc(C(=O)N[C@@H](CCC(=O)O)C(=O)O)cc3)cnc2[nH]1 [Folic acid] | 1.00 | 1.13 | 
24 | COc1ccc2[nH]c3c(c2c1)CCNC3 [Pinoline] |  |  | MATE1 ratio (MATE1): 1.28; MATE2K ratio (MATE2K): 1.21
25 | CC(C)c1cccc(C(C)C)c1O [Propofol] |  |  | MATE1 (MATE1): 0.64; MATE1 ratio (MATE1): 0.64; MATE2 (MATE2K): 0.8; MATE2K ratio (MATE2K): 0.80
26 | CNCc1ccc(-c2[nH]c3cc(F)cc4c3c2CCNC4=O)cc1 [Rucaparib] | 3.71 | 2.03 | MATE1 (MATE1; [2]): 3.71; MATE2 (MATE2K; [3]): 2.03
27 | CC[C@H]1OC(=O)[C@H](C)[C@@H](O[C@H]2C[C@@](C)(OC)[C@@H](O)[C@H](C)O2)[C@H](C)[C@@H](O[C@@H]2O[C@H](C)C[C@H](N(C)C)[C@H]2O)[C@](C)(OC)C[C@@H](C)C(=O)[C@H](C)[C@@H](O)[C@]1(C)O [Clarithromycin] | 1.21 | 1.31 | MATE1 (uptake ratio) (MATE1; [4]): 1.21; MATE2 (uptake ratio) (MATE2K; [5]): 1.31
28 | C[N+]1(CCC(C(N)=O)(c2ccccc2)c2ccccc2)CCCCC1 [Fenpiverinium] | 15.19 | 1.35 | 
29 | COc1ccc(C(CN(C)C)C2(O)CCCCC2)cc1 (centres unmarked) [Venlafaxine] |  |  | MATE1 (MATE1): 1.22; MATE2 (MATE2K): 1.3
30 | CCCCCC(=O)OC(CC(=O)[O-])C[N+](C)(C)C (centres unmarked) [Hexanoylcarnitine] | 1.02 | 1.01 | 
31 | CCN1CCCC1CNC(=O)c1cc(S(=O)(=O)CC)c(N)cc1OC [Amisulpride (S), Amisulpride] | 13.70 | 7.93 | MATE1 (uptake ratio) (MATE1; [4]): 13.7; MATE2 (uptake ratio) (MATE2K; [5]): 7.93
32 | COc1ccc(CCN)cc1O [4-Methoxy-m-tyramine] |  |  | MATE1 (uptake ratio) (MATE1): 3.09; MATE1 ratio (MATE1): 3.09; MATE2 (uptake ratio) (MATE2K): 1.19; MATE2K ratio (MATE2K): 1.19
33 | NCCc1c[nH]cn1 [Histamine] | 19.90 | 1.40 | 
34 | Br.Cc1ncc(C[n+]2cccc(CCO)c2C)c(N)n1.[Br-] [Pyrithiamine] | 20.40 | 7.32 | MATE1 (MATE1; [2]): 20.4; MATE2 (MATE2K; [3]): 7.32
35 | Clc1ccc(COC(Cn2ccnc2)c2ccc(Cl)cc2Cl)c(Cl)c1 (centres unmarked) [Miconazole] | 1.33 | 1.50 | 
36 | CC(=O)Nc1ccc(O)cc1 [Paracetamol] | 1.00 | 0.99 | 
37 | Cc1ncc(CO)c(C=O)c1O [Pyridoxal] | 0.97 | 1.14 | MATE1 (MATE1; [2]): 0.97; MATE2 (MATE2K; [3]): 1.14
38 | CC(C)NC[C@H](O)COc1ccc(O)cc1 [Prenalterol] | 5.01 | 1.62 | 
39 | Cc1oc2nc3c(c(NC(=O)CN4CCCC4=O)c2c1C)CCCC3 [Coluracetam] | 0.97 | 0.97 | 
40 | CCOC(=O)C1=C[C@@H](OC(CC)CC)[C@H](NC(C)=O)[C@@H](N)C1 [Oseltamivir] | 1.18 | 1.04 | 
41 | OCCN1CCN(CCCN2c3ccccc3Sc3ccc(Cl)cc32)CC1 [Perphenazine] | 1.09 | 0.94 | 
42 | CCCCCCCCc1ccc(CCC(N)(CO)CO)cc1 [Fingolimod] | 1.12 | 1.14 | 
43 | C#CCN[C@@H]1CCc2ccccc21 [Rasagiline (S), Rasagiline] | 1.46 | 1.46 | MATE1 (MATE1; [2]): 1.46; MATE2 (MATE2K; [3]): 1.46
44 | CNCC(O)c1ccccc1 (centres unmarked) [Halostachine] | 1.41 | 1.52 | 
